Assay results taken from article PMC8808171, “Nonselective TRPC channel inhibition and suppression of aminoglycoside-induced premature termination codon readthrough by the small molecule AC1903” (The Journal of Biological Chemistry, 2022).

Columns and labels:
[1] = test system: DMS-114 cells (TP53 R213X); experiment: G418-induced PTC readthrough (full-length p53, capillary electrophoresis Western) in DMS-114 cells; assay type: cell-based, human; conditions: for suppression of PTC readthrough induced by 400 μg/ml G418: 3 h preincubation with inhibitor, screen at two concentrations (Fig. 1C)
Text: (§1) Variation in PTC readthrough response has been reported among individuals or cell lines with different nonsense mutations. Although this in part highlights the importance of the stop codon and its surrounding sequence as well as the physical location of the nonsense mutation in the mRNA sequence, understanding the contribution of other underlying genetic variations becomes more complicated. To rule out the effect of the sequence and position of nonsense mutations on response variation to potential PTC readthrough modulators, we studied two cancer cell lines, DMS-114 and TC-71, with identical homozygous nonsense mutation R213X in their TP53 gene. […] To find out whether the reduced response to G418 in TC-71 cells was associated with lower intracellular levels of G418, we measured concentrations of G418 in both cell lines at 0, 8 and 24 h post exposure to G418 (100 μg/ml).
Figure 1 Effect of TRPC inhibitors on G418 induced PTC readthrough. A, DMS-114 and TC-71 cell lines with homozygous TP53 nonsense mutation (R213X) were exposed to indicated concentrations of G418 for 24 h and p53 levels (full-length, FL-p53; truncated, TR-p53) were measured. B, 100 μg/ml G418 was added to DMS-114 and TC-71 cells and its total intracellular levels were measured at indicated time points (n = 5; data normalized to the highest response in each experiment; bars represent mean ± SD). C, DMS-114 cells were preincubated with indicated concentrations of TRPC inhibitors GFB-8438 (GFB), SAR7334 (SAR), SKF96365 (SKF), 2-APB, or AC1903 for 3 h followed by exposure to 400 μg/ml G418 for another 3 h. At 24 h cell lysates were prepared and p53 levels were measured. In panels A and C, protein levels were measured by automated capillary electrophoresis Western analysis (using vinculin and GAPDH as loading controls). Samples of cell lysates containing equal amounts of total protein were loaded in all capillaries and FL-p53 levels were expressed relative to the amount of FL-p53 in untreated cells. ∗ indicates statistically significant difference between samples according to two-way ANOVA (p < 0.05). PTC, premature termination codon; TRPC, transient receptor potential canonical.
To further investigate AC1903 as a suppressor of G418-induced PTC readthrough, we exposed DMS-114 and TC-71 cells to various concentrations of AC1903 for 3 h prior to exposure to 400 μg/ml G418 for another 3 h, followed by media replacement and incubation for another 18 h.
(§2) Figure 2 Effect of AC1903 on PTC readthrough and G418 trafficking.A and B, DMS-114 (A) or TC-71 (B) cells were pretreated with indicated concentrations of AC1903 for 3 h followed by exposure to 400 μg/ml G418. After 3 h medium was replenished and at 24 h cell lysates were prepared and p53 levels were measured. C and E, DMS-114 (C) or JEB01 (E) cells were either left untreated or pretreated with 150 μM AC1903 for 3 h followed by exposure to indicated concentrations of G418 for another 3 h. At 24 h cell lysates were prepared and p53 (C) or Collagen XVII (E) levels were measured. In panels A–C, protein levels were measured by automated capillary electrophoresis Western analysis (using vinculin as loading control). In panel E, protein levels were measured by Western blot (using beta-actin as loading control). Samples of cell lysates containing equal amounts of total protein were loaded in all capillaries and FL-p53 or Collagen XVII levels were expressed relative to their respective amounts in untreated cells. D, total intracellular levels of G418 were measured in the same lysates as in (C) (n = 5; data normalized to the highest response in each experiment; bars represent mean ± SD). F, total intracellular levels of G418 were measured in the same lysates as in (E) (n = 2; data normalized to the highest response in each experiment; bars represent mean ± SD). ∗ indicates statistically significant difference between samples according to one-way ANOVA (p < 0.05). PTC, premature termination codon. […]

TC-71 cells = experiment: Measurement of intracellular G418 (gentamicin ELISA) in TC-71 cells; assay type: cell-based, human; conditions: 100 μg/ml G418
Text: as §1
(§3) Figure 1 Effect of TRPC inhibitors on G418 induced PTC readthrough. A, DMS-114 and TC-71 cell lines with homozygous TP53 nonsense mutation (R213X) were exposed to indicated concentrations of G418 for 24 h and p53 levels (full-length, FL-p53; truncated, TR-p53) were measured. B, 100 μg/ml G418 was added to DMS-114 and TC-71 cells and its total intracellular levels were measured at indicated time points (n = 5; data normalized to the highest response in each experiment; bars represent mean ± SD). […]

TC-71 cells (TP53 R213X) = experiment: G418-induced PTC readthrough (full-length p53, capillary electrophoresis Western) in TC-71 cells; assay type: cell-based; conditions: increasing concentrations of G418, 24 h
Text: as §1, §3

hTRPV4 = test system: hTRPV4; design: method as in PMID 23136043, PMID 28523109; conditions: cited from earlier work
[2] = test system: DMS-114 cells (TP53 R213X); experiment: G418-induced PTC readthrough (full-length p53, capillary electrophoresis Western) in DMS-114 cells; assay type: cell-based, human
DMS-114 cells = experiment: Measurement of intracellular G418 (gentamicin ELISA) in DMS-114 cells; assay type: cell-based, human; conditions: Pico145 up to 3 μM, 400 μg/ml G418 (Fig. 3B)
Description: as §2, with “Samples of cell lysates containing equal amounts of total protein were loaded in all capillaries and FL-p53 or Collagen XVII levels were expressed relative to their respective amounts in untreated cells.” left out, “0.05).” for “0.05). PTC, premature termination codon.”

## NCCOB(c1ccccc1)c1ccccc1 [2-APB]
[1]
  suppression of PTC readthrough induced by 400 μg/ml G418: ~66%

## CN[C@@H]1[C@@H](O)[C@@H](O[C@@H]2[C@@H](O)[C@H](O[C@H]3O[C@H]([C@@H](C)O)[C@@H](O)[C@H](O)[C@H]3N)[C@@H](N)C[C@H]2N)OC[C@]1(C)O [G418]
TC-71 cells; 8 h post exposure
  intracellular G418 level lower in TC-71 compared with DMS-114: ~11%
TC-71 cells; 24 h post exposure
  intracellular G418 level lower in TC-71 compared with DMS-114: ~9%
[1]; increasing concentrations of G418, 24 h
  increase in production of full-length p53 (readthrough product) compared with untreated cells: up to 144 fold
TC-71 cells (TP53 R213X)
  increase in PTC readthrough compared to untreated cells: up to eightfold

## O=C1CN(c2cn[nH]c(=O)c2Cl)CCN1Cc1ccccc1C(F)(F)F [GFB-8438]
[1]
  suppression of PTC readthrough induced by 400 μg/ml G418: no effect

## O=C(NC1(c2ccccc2)CC1)c1c(CN2CCC(N3CCCCC3)CC2)c(-c2cccc(C(F)(F)F)c2)nc2cc(Br)ccc12 [GSK2193874]
hTRPV4
  IC50: 40 nM
[2]; 0.03–3 μM GSK2193874 alone or in combination with 400 μg/ml G418 (Fig. S12)
  effect on full-length p53 production: did not have a major effect

## Cn1c(=O)n(CCCO)c(=O)c2c1nc(Oc1cccc(OC(F)(F)F)c1)n2Cc1ccc(Cl)cc1 [Pico145]
DMS-114 cells
  effect on intracellular G418 levels: did not affect
[2]; Pico145 up to 3 μM, 400 μg/ml G418 (Fig. 3A)
  effect on PTC readthrough: did not affect

## N#Cc1ccc(O[C@@H]2c3ccccc3C[C@H]2N2CCC[C@@H](N)C2)c(Cl)c1 [SAR7334]
[1]
  suppression of PTC readthrough induced by 400 μg/ml G418: no effect

## COc1ccc(CCCOC(Cn2ccnc2)c2ccc(OC)cc2)cc1 (stereo not drawn) [SKF96365]
[1]
  suppression of PTC readthrough induced by 400 μg/ml G418: ~33%
